According to patent US20230135729A1, “COMPOUND WITH ANTI-SPORE ACTIVITY AND PHARMACEUTICAL COMPOSITION THEREOF” (priority 2020, published 2023):
Values after ≈ are worked out from the molar mass of the structure shown.

What was measured:
Format in all cases: cell-based
[1] = tested on: spores of ATCC 630 strain; experiment: Inhibition of germination of C. difficile spores (MIC), strain ATCC 630; conditions: Clostridioides difficile, ATCC630, 1 h; strain 630; sodium taurocholate as germinant, BHIS medium, 37° C., OD580 for 60 min; read-out: MIC (minimum concentration that completely inhibits spore germination)
Outline: (§1)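 Spores heat-activated for 30 min at 65° C and washed, then preincubated with compound (10 mM DMSO stock) in BHIS at 37° C. Germination was triggered with sodium taurocholate, and OD580 was read each minute for 60 min. Inhibition = 100% − germination rate, from final vs initial OD relative to germinant-only controls.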

[2] = tested on: spores of ATCC BBA1870 strain; experiment: Inhibition of germination of C. difficile spores (MIC), strain ATCC BBA1870; conditions: Clostridioides difficile, ATCCBBA1870STRAIN, 1 h; strain 1870; sodium taurocholate as germinant, BHIS medium, 37° C., OD580 for 60 min; read-out: MIC (minimum concentration that completely inhibits spore germination)
Outline: as §1

[3] = tested on: spores of ATCC 43255 strain; experiment: Inhibition of germination of C. difficile spores (MIC), strain ATCC 43255; conditions: Clostridioides difficile, ATCC43255, 1 h; strain 43255; sodium taurocholate as germinant, BHIS medium, 37° C., OD580 for 60 min; read-out: MIC (minimum concentration that completely inhibits spore germination)
Outline: as §1

Compound	MIC [1]	MIC [2]	MIC [3]
CCC(NC(=O)C[C@@H](C)[C@H]1CC[C@H]2[C@@H]3C[C@H](O)[C@@H]4C[C@H](O)CC[C@]4(C)[C@H]3CC[C@]12C)c1ccc(Cl)s1 (stereo partly drawn) [Compound I-126]	1 µM (≈ 0.536 µg/mL)	2 µM (≈ 1.07 µg/mL)	2 µM (≈ 1.07 µg/mL)
CC(C)C(NC(=O)C[C@@H](C)[C@H]1CC[C@H]2[C@@H]3C[C@H](O)[C@@H]4C[C@H](O)CC[C@]4(C)[C@H]3CC[C@]12C)c1cccs1 (stereo partly drawn) [Compound I-127]	4 µM (≈ 2.06 µg/mL)	8 µM (≈ 4.13 µg/mL)	8 µM (≈ 4.13 µg/mL)
CC(C)[C@@H](NC(=O)C[C@@H](C)[C@H]1CC[C@H]2[C@@H]3C[C@H](O)[C@@H]4C[C@H](O)CC[C@]4(C)[C@H]3CC[C@]12C)c1ccc(Br)s1 [Compound I-128]	1 µM (≈ 0.595 µg/mL)	2 µM (≈ 1.19 µg/mL)	2 µM (≈ 1.19 µg/mL)
CC[C@H](NC(=O)C[C@@H](C)[C@H]1CC[C@H]2[C@@H]3C[C@H](O)[C@@H]4CC(=O)CC[C@]4(C)[C@H]3CC[C@]12C)c1ccc(Cl)s1 [Compound I-129]	2 µM (≈ 1.07 µg/mL)	4 µM (≈ 2.14 µg/mL)	2 µM (≈ 1.07 µg/mL)
CC(C)C(NC(=O)C[C@@H](C)[C@H]1CC[C@H]2[C@@H]3C[C@H](O)[C@@H]4CC(=O)CC[C@]4(C)[C@H]3CC[C@]12C)c1ccc(Br)s1 (stereo partly drawn) [Compound I-130]	4 µM (≈ 2.37 µg/mL)	4 µM (≈ 2.37 µg/mL)	4 µM (≈ 2.37 µg/mL)
CC(C)[C@@H](NC(=O)C[C@@H](C)[C@H]1CC[C@H]2[C@@H]3CC(=O)[C@@H]4CC(=O)CC[C@]4(C)[C@H]3CC[C@]12C)c1ccc(Cl)s1 [Compound I-131]	2 µM (≈ 1.09 µg/mL)	2 µM (≈ 1.09 µg/mL)	2 µM (≈ 1.09 µg/mL)
CC[C@H](NC(=O)C[C@@H](C)[C@H]1CC[C@H]2[C@@H]3[C@H](O)C[C@@H]4CC(=O)CC[C@]4(C)[C@H]3CC[C@]12C)c1cccs1 [Compound I-132]	256 µM (≈ 128 µg/mL)	> 256 µM	128 µM (≈ 64 µg/mL)
CC[C@@H](NC(=O)C[C@@H](C)[C@H]1CC[C@H]2[C@@H]3[C@H](O)C[C@@H]4CC(=O)CC[C@]4(C)[C@H]3CC[C@]12C)c1cccs1 [Compound I-133]	2 µM (≈ 1 µg/mL)	2 µM (≈ 1 µg/mL)	2 µM (≈ 1 µg/mL)
CC(C)C(NC(=O)C[C@@H](C)[C@H]1CC[C@H]2[C@@H]3[C@H](O)C[C@@H]4CC(=O)CC[C@]4(C)[C@H]3CC[C@]12C)c1cccs1 (stereo partly drawn) [Compound I-134]	2 µM (≈ 1.03 µg/mL)	2 µM (≈ 1.03 µg/mL)	2 µM (≈ 1.03 µg/mL)
CC(C)[C@H](NC(=O)C[C@@H](C)[C@H]1CC[C@H]2[C@@H]3[C@H](O)C[C@@H]4CC(=O)CC[C@]4(C)[C@H]3CC[C@]12C)c1cccs1 [Compound I-135]	> 256 µM	> 256 µM	> 256 µM
CC(C)[C@@H](NC(=O)C[C@@H](C)[C@H]1CC[C@H]2[C@@H]3[C@H](O)C[C@@H]4CC(=O)CC[C@]4(C)[C@H]3CC[C@]12C)c1cccs1 [Compound I-136]	1 µM (≈ 0.514 µg/mL)	1 µM (≈ 0.514 µg/mL)	1 µM (≈ 0.514 µg/mL)
CC[C@@H](NC(=O)C[C@@H](C)[C@H]1CC[C@H]2[C@@H]3[C@H](O)C[C@@H]4C[C@H](O)CC[C@]4(C)[C@H]3CC[C@]12C)c1ccc(Cl)s1 [Compound I-137]	1 µM (≈ 0.536 µg/mL)	1 µM (≈ 0.536 µg/mL)	1 µM (≈ 0.536 µg/mL)
CC[C@@H](NC(=O)C[C@@H](C)[C@H]1CC[C@H]2[C@@H]3[C@H](O)C[C@@H]4C[C@H](O)CC[C@]4(C)[C@H]3CC[C@]12C)c1ccc(Br)s1 [Compound I-138]	1 µM (≈ 0.581 µg/mL)	1 µM (≈ 0.581 µg/mL)	1 µM (≈ 0.581 µg/mL)
CC(C)[C@@H](NC(=O)C[C@@H](C)[C@H]1CC[C@H]2[C@@H]3[C@H](O)C[C@@H]4C[C@H](O)CC[C@]4(C)[C@H]3CC[C@]12C)c1ccc(Cl)s1 [Compound I-139]	1 µM (≈ 0.55 µg/mL)	2 µM (≈ 1.1 µg/mL)	1 µM (≈ 0.55 µg/mL)
CC(C)[C@@H](NC(=O)C[C@@H](C)[C@H]1CC[C@H]2[C@@H]3[C@H](O)C[C@@H]4C[C@H](O)CC[C@]4(C)[C@H]3CC[C@]12C)c1ccc(Br)s1 [Compound I-140]	1 µM (≈ 0.595 µg/mL)	1 µM (≈ 0.595 µg/mL)	1 µM (≈ 0.595 µg/mL)
CC[C@@H](NC(=O)C[C@@H](C)[C@H]1CC[C@H]2[C@@H]3[C@@H](O)C[C@@H]4C[C@H](O)CC[C@]4(C)[C@H]3CC[C@]12C)c1ccc(Cl)s1 [Compound I-141]	32 µM (≈ 17.2 µg/mL)	32 µM (≈ 17.2 µg/mL)	32 µM (≈ 17.2 µg/mL)
CC(C)[C@@H](NC(=O)C[C@@H](C)[C@H]1CC[C@H]2[C@@H]3[C@@H](O)C[C@@H]4C[C@H](O)CC[C@]4(C)[C@H]3CC[C@]12C)c1ccc(Br)s1 [Compound I-142]	32 µM (≈ 19 µg/mL)	32 µM (≈ 19 µg/mL)	32 µM (≈ 19 µg/mL)

Compound	MIC [1]	MIC [2]	MIC [3]
CC[C@@H](NC(=O)C[C@@H](C)[C@H]1CC[C@H]2[C@@H]3[C@H](O)C[C@@H]4C[C@@H](O)CC[C@]4(C)[C@H]3CC[C@]12C)c1ccc(Br)s1 [Compound I-143]	4 µM (≈ 2.32 µg/mL)	8 µM (≈ 4.65 µg/mL)	4 µM (≈ 2.32 µg/mL)
CC(C)[C@@H](NC(=O)C[C@@H](C)[C@H]1CC[C@H]2[C@@H]3[C@H](O)C[C@@H]4C[C@@H](O)CC[C@]4(C)[C@H]3CC[C@]12C)c1ccc(Cl)s1 [Compound I-144]	2 µM (≈ 1.1 µg/mL)	4 µM (≈ 2.2 µg/mL)	2 µM (≈ 1.1 µg/mL)
CC[C@@H](NC(=O)C[C@@H](C)[C@H]1CC[C@H]2[C@@H]3[C@H](O)C[C@@H]4C[C@H](O)CC[C@]4(C)[C@H]3C[C@H](O)[C@]12C)c1ccc(Cl)s1 [Compound I-145]	16 µM (≈ 8.84 µg/mL)	32 µM (≈ 17.7 µg/mL)	32 µM (≈ 17.7 µg/mL)
CC(C)[C@@H](NC(=O)C[C@@H](C)[C@H]1CC[C@H]2[C@@H]3[C@H](O)C[C@@H]4C[C@H](O)CC[C@]4(C)[C@H]3C[C@H](O)[C@]12C)c1ccc(Cl)s1 [Compound I-146]	16 µM (≈ 9.06 µg/mL)	16 µM (≈ 9.06 µg/mL)	16 µM (≈ 9.06 µg/mL)
CC[C@@H](NC(=O)C[C@@H](C)[C@H]1CC[C@H]2[C@@H]3CC[C@@H]4C[C@H](O)CC[C@]4(C)[C@H]3CC[C@]12C)c1ccc(Br)s1 [Compound I-147]	16 µM (≈ 9.03 µg/mL)	32 µM (≈ 18.1 µg/mL)	16 µM (≈ 9.03 µg/mL)
CC(C)[C@@H](NC(=O)C[C@@H](C)[C@H]1CC[C@H]2[C@@H]3CC[C@@H]4C[C@H](O)CC[C@]4(C)[C@H]3CC[C@]12C)c1ccc(Br)s1 [Compound I-148]	16 µM (≈ 9.26 µg/mL)	16 µM (≈ 9.26 µg/mL)	16 µM (≈ 9.26 µg/mL)
CC[C@@H](NC(=O)C[C@@H](C)[C@H]1CC[C@H]2[C@@H]3C(=O)C[C@@H]4C[C@H](O)CC[C@]4(C)[C@H]3CC[C@]12C)c1ccc(Cl)s1 [Compound I-149]	2 µM (≈ 1.07 µg/mL)	2 µM (≈ 1.07 µg/mL)	2 µM (≈ 1.07 µg/mL)
CC(C)[C@@H](NC(=O)C[C@@H](C)[C@H]1CC[C@H]2[C@@H]3C(=O)C[C@@H]4C[C@H](O)CC[C@]4(C)[C@H]3CC[C@]12C)c1ccc(Cl)s1 [Compound I-150]	1 µM (≈ 0.548 µg/mL)	2 µM (≈ 1.1 µg/mL)	2 µM (≈ 1.1 µg/mL)
CC[C@@H](NC(=O)C[C@@H](C)[C@H]1CC[C@H]2[C@@H]3C(=O)CC4=CC(=O)CC[C@]4(C)[C@H]3CC[C@]12C)c1ccc(Br)s1 [Compound I-151]	0.5 µM (≈ 0.287 µg/mL)	0.5 µM (≈ 0.287 µg/mL)	1 µM (≈ 0.575 µg/mL)
CC(C)[C@@H](NC(=O)C[C@@H](C)[C@H]1CC[C@H]2[C@@H]3C(=O)CC4=CC(=O)CC[C@]4(C)[C@H]3CC[C@]12C)c1ccc(Br)s1 [Compound I-152]	0.5 µM (≈ 0.294 µg/mL)	1 µM (≈ 0.589 µg/mL)	1 µM (≈ 0.589 µg/mL)
CC[C@@H](NC(=O)C[C@@H](C)[C@H]1CC[C@H]2[C@@H]3C(=O)CC4=CC(=O)C=C[C@]4(C)[C@H]3CC[C@]12C)c1ccc(Cl)s1 [Compound I-153]	0.5 µM (≈ 0.264 µg/mL)	0.5 µM (≈ 0.264 µg/mL)	0.5 µM (≈ 0.264 µg/mL)
CC(C)[C@@H](NC(=O)C[C@@H](C)[C@H]1CC[C@H]2[C@@H]3C(=O)CC4=CC(=O)C=C[C@]4(C)[C@H]3CC[C@]12C)c1ccc(Cl)s1 [Compound I-154]	0.5 µM (≈ 0.271 µg/mL)	1 µM (≈ 0.542 µg/mL)	0.5 µM (≈ 0.271 µg/mL)
CC[C@@H](NC(=O)C[C@@H](C)[C@H]1CC[C@H]2[C@@H]3[C@H](O)CC4=CC(=O)CC[C@]4(C)[C@H]3CC[C@]12C)c1ccc(Br)s1 [Compound I-155-2]	0.25 µM (≈ 0.144 µg/mL)	0.25 µM (≈ 0.144 µg/mL)	0.25 µM (≈ 0.144 µg/mL)
CC(C)[C@@H](NC(=O)C[C@@H](C)[C@H]1CC[C@H]2[C@@H]3[C@H](O)CC4=CC(=O)CC[C@]4(C)[C@H]3CC[C@]12C)c1ccc(Br)s1 [Compound I-156-2]	0.25 µM (≈ 0.148 µg/mL)	0.25 µM (≈ 0.148 µg/mL)	0.5 µM (≈ 0.295 µg/mL)
CC[C@@H](NC(=O)C[C@@H](C)[C@H]1CC[C@H]2[C@@H]3[C@H](O)CC4=CC(=O)CC[C@]4(C)[C@H]3CC[C@]12C)c1ccc(Cl)s1 [Compound I-157-2]	0.25 µM (≈ 0.133 µg/mL)	0.25 µM (≈ 0.133 µg/mL)	0.5 µM (≈ 0.266 µg/mL)
CC(C)[C@@H](NC(=O)C[C@@H](C)[C@H]1CC[C@H]2[C@@H]3[C@H](O)CC4=CC(=O)CC[C@]4(C)[C@H]3CC[C@]12C)c1ccc(Cl)s1 [Compound I-158-2]	0.5 µM (≈ 0.273 µg/mL)	0.5 µM (≈ 0.273 µg/mL)	0.5 µM (≈ 0.273 µg/mL)
